# Columns and labels:
# [1] = target: T1, thymidine phosphorylase (TP) (Escherichia coli, UniProt P07650); test: Kinetic studies on thymidine phosphorylase (Lineweaver-Burk, secondary re-plot, Dixon plot); type: biochemical, E. coli; details: thymidine as variable substrate; for Inhibition Type: from Lineweaver-Burk plot
# T1 construct: purchased Sigma Aldrich, USA; host or cells: E. coli
# Protocol: Kinetic studies were carried out to identify the mechanism of inhibition by these compounds. Inhibitor could bind with the enzyme in multiple ways, such as in competitive, non-competitive, mixed or uncompetitive way. In kinetic assay, the enzyme (0.058 U/200 μL) was incubated with different concentrations of inhibitor for 10 min at 30°C. The reaction was then initiated by adding different concentrations (0.1875–1.5 mM) of substrate (thymidine), and the resulting degradation of thymidine was measured continuously at 290 nm for 10 min on ELISA plate reader. Every experiment was run in triplicate.
# Lineweaver-Burk plot was plotted to determine the type of inhibition. This was accomplished by plotting the reciprocal of the rate of reaction against the reciprocal of the substrate concentration. Ki values were determined by secondary re-plot of Lineweaver-Burk plot, and reconfirmed by Dixon plot.
# [2] = system: mouse fibroblast (3T3) cells; test: MTT anti-proliferative (cytotoxicity) assay, 3T3 cells; type: cell-based; details: NIH3T3, 48 h incubation, mouse fibroblast normal cell line, read-out: IC50 ± Standard Deviation, 3T3 Cell Line
# Protocol: (§1) Anti-proliferative activity of active compounds was evaluated by using the standard MTT (3-[4,5-dimethylthiazole-2-yl]-2,5-diphenyl-tetrazolium bromide) colorimetric assay in 96-well plate.
# (§2) It is a colorimetric assay that measures the reduction of MTT by mitochondrial enzyme i.e. succinate dehydrogenase. The MTT enters into the mitochondria of cell, where it is reduced to an insoluble formazan salt. As reduction of MTT can only occur in metabolically active cells, the level of activity is actually a measure of the viability of the cells.
# (§3) Mouse fibroblast normal cell line 3T3, and prostate cancer line (PC3) were cultured separately in DMEM, supplemented with 5% of FBS, 100 IU/mL of penicillin and 100 μg/mL of streptomycin, and kept at 37°C in 5% CO2 incubator. For the preparation of cell culture, 100 μL/well of cell solution (5 x 10^4 cells/mL) was added into 96-well plate. The plate was incubated for overnight, and fresh medium was added after the removal of old medium. The test compounds were also added in different concentrations into the plate, and again incubated for 48 h. After the completion of this incubation period, 200 μL MTT (0.5 mg/mL) was added, and plate was again incubated for 4 h, after this final incubation, 100 μL of DMSO was added to each well. The level of MTT reduction to formazan was evaluated by change in absorbance at 540 nm for 3T3, and 570 nm for PC3 using a micro-plate reader (Spectra Max plus, Molecular Devices, CA, USA).
# [3] = system: prostate cancer (PC3) cells; test: MTT anti-proliferative assay, PC3 cells; type: cell-based; details: Homo sapiens, PC-3, 48 h incubation, prostate cancer cell line, read-out: IC50 ± Standard Deviation, PC3 Cell Line
# Protocol: as §1, §2, §3
# [4] = target: T1, thymidine phosphorylase (TP); test: Thymidine phosphorylase inhibition assay (spectrophotometric, 290 nm); type: biochemical, E. coli; details: for inhibition: read-out: Percent Inhibition of thymidine phosphorylase, 10 μL of test compound (0.5 mM in dimethylsulfoxide) per well, <50% regarded inactive; for IC50: recombinant TP expressed in E. coli, substrate thymidine, pH 7.0, 30°C, N.A. = not active, read-out: IC50 (μM ± SEM), thymidine phosphorylase inhibition
# Protocol: Since human TP is not commercially available, we used commercially available recombinant TP (expressed in E. coli) enzyme. Primary sequence of TP is mostly conserved throughout the evolution and mammalian TP share 39% sequence similarity with TP of E. coli. The mammalian enzyme also shares 65–70% similarity with the active site residues of E. coli TP enzyme.
# Assay for TP inhibition was performed spectrophotometrically, following the method of Bera et al. with some modifications. Enzyme TP catalyzed the reversible phosphorolysis of thymidine to thymine and 2-deoxyribose-1-phosphate. Reaction mixture contained 150 μL of potassium phosphate buffer (pH 7.0, 50 mM), 20 μL of enzyme (0.058 U/well), and 10 μL of test compound (0.5 mM in dimethylsulfoxide). The reaction mixture was incubated for 10 min at 30°C. 20 μL of substrate (1.5 mM) was then added and change in absorbance was recorded after every minute for a total time period of 10 minutes at 290 nm in ELISA plate reader (Spectra Max-340, Molecular Devices, CA, USA).
# We have used the 96-well UV-plates, purchased from Corning (Catalogue No. COSTAR 3635, Lot No. 00912050). […] We then added the substrate (thymidine), and recorded the final readings.
# T1 sequence (P07650 whole entry): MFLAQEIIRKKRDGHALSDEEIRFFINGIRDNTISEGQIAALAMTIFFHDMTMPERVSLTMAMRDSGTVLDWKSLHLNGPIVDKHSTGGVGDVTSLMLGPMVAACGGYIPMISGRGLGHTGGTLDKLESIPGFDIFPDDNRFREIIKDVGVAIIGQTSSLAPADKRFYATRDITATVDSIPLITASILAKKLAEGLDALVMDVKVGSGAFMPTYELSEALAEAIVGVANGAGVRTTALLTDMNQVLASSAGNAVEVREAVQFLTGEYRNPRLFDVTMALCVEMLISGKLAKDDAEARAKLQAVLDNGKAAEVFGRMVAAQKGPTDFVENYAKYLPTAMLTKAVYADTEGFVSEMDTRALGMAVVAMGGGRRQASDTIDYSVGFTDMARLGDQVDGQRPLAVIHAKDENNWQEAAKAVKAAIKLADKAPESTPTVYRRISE
SMILES,Inhibition Type [1],"Ki ([1]; secondary re-plot of Lineweaver-Burk plot, reconfirmed by Dixon plot, read-out: Ki (μM ± SEM)) [µM]",IC50 [2] [µM],IC50 [3] [µM],inhibition [4] [%],IC50 [4] [µM]
"O=C(NN=Cc1cc(Br)cc(Br)c1O)c1ccc(O)cc1 [Compound 22, N'-[(E)-(3^′,5^′-Dibromo-2^′-hydroxylphenyl)methylidene]-4-hydroxylbenzohydrazide]",Non-competitive,1.75 ± 0.009,9.2 ± 0.1,8.3 ± 0.9,99.9,6.8 ± 0.7
"C/C(=N\NC(=O)c1ccc(O)cc1)c1c(O)cccc1O [Compound 27, N'-[(E)-1-(2^′,6^′-Dihydroxylphenyl)ethylidene]-4-hydroxylbenzohydrazide]",Uncompetitive,–,26.7 ± 1,> 30,93,–
"CC/C(=N\NC(=O)c1ccc(O)cc1)c1cc(O)ccc1O [Compound 29, N'-[(E)-1-(2^′,5^′-Dihydroxylphenyl)propylidene]-4-hydroxylbenzohydrazide]",Uncompetitive,–,19.5 ± 0.9,> 30,99,173 ± 1.4

# Source: PMC6984732, “Thymidine phosphorylase and prostrate cancer cell proliferation inhibitory activities of synthetic 4-hydroxybenzohydrazides: In vitro, kinetic, and in silico studies” (PLoS ONE, 2020)
